Experimental data from ChEMBL document CHEMBL4627380, “Phaeosphaones: Tyrosinase Inhibitory Thiodiketopiperazines from an Endophytic Phaeosphaeria fuckelii” (J Nat Prod, 2020).
Activity calls are given as the source filed them. The rule behind the calls is not given here.

Legend:
Homo sapiens = organism: Homo sapiens; experiment: Inhibition of alpha-glucosidase (unknown origin) at 100 uM
Mushroom tyrosinase = Mushroom tyrosinase (Agaricus bisporus, UniProt O42713+Q00024+C7FF04+C7FF05); experiment: Inhibition of mushroom tyrosinase using L-Dopa as substrate preincubated for 10 mins followed by substrate addition and measured after 5 mins

inhibition (Homo sapiens) | IC50 (Mushroom tyrosinase) [µM] | SMILES
inactive |  | CS[C@]1(Cc2c[nH]c3ccccc23)NC(=O)[C@@](SC)(C(C)C)NC1=O
inactive | 28.4 | CC(C)[C@@]12SS[C@]3(C(=O)N1C)[C@@H](O)[C@]1(c4c[nH]c5ccccc45)c4ccccc4N[C@@H]1N3C2=O
inactive |  | CC(C)[C@]12SS[C@]([C@@H](O)c3c[nH]c4ccccc34)(CC1=O)C(=O)N2C
inactive | 33.2 | CO[C@@]1([C@H](SC)c2c[nH]c3ccccc23)NC(=O)[C@@](SC)(C(C)C)N(C)C1=O
inactive |  | CC(C)[C@@H]1NC(=O)[C@@H]2C[C@@]3(O)c4ccccc4N[C@H]3N2C1=O
inactive |  | CO[C@]1([C@H](SC)c2c[nH]c3ccccc23)NC(=O)[C@@](SC)(C(C)C)N(C)C1=O
inactive |  | CS[C@H](c1c[nH]c2ccccc12)[C@]1(O)NC(=O)[C@@](SC)(C(C)C)N(C)C1=O

SMILES | inhibition (Homo sapiens) | IC50 (Mushroom tyrosinase) [µM]
CS[C@]1(Cc2c[nH]c3ccccc23)NC(=O)[C@](CO)(SC)N(C)C1=O [CHETOSEMINUDIN B] | inactive | 31.7
